Usually IC50 stands for the point on the concentration scale where inhibition reaches its midpoint. As a reminder, the EC50 is the concentration giving half of the maximal effect. Broadly, the pIC50 is the IC50 on a negative log10 scale, so that one unit is a factor of ten.

pIC50: −log10 of the molar value. Like-named read-outs stand apart in the source and are kept apart here.

The target in one test is T1, TNKS1 (Homo sapiens, UniProt O95271).
T1 construct: GST-tagged Tnks-1 (1023-1327 aa, prepared in-house); made in house
T1 sequence (O95271 1023-1327): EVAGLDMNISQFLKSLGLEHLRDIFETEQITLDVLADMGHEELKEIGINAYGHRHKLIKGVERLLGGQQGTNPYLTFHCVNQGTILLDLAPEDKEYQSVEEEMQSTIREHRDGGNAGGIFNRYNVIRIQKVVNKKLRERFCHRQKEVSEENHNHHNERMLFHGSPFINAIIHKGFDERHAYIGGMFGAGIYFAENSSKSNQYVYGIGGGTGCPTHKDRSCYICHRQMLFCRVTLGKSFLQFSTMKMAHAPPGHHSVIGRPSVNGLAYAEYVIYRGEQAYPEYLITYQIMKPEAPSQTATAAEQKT
The test is described as follows: TNKS1 activity ELISA (autoparsylation assay). In kind it is biochemical. Conditions: GST-tagged Tnks-1 (1023-1327 aa). As to the method: (§1) Description of the TNKS1 and TNKS2 ELISA Assay
(§2) Biochemical Activity Testing of TNKS 1 and 2: Activity ELISA (Autoparsylation Assay)
(§3) For analysis of autoparsylation activity of TNKS 1 and 2 an activity ELISA iss performed: In the first step GST tagged TNKS is captured on a Glutathione coated plate. Then the activity assay with biotinylated NAD is performed in the absence/presence of the compounds. During the enzymatic reaction GST tagged TNKS transfers biotinylated ADP-ribose to itself from biotinylated NAD as co-substrate. For the detection streptavidin-HRP conjugate is added that binds to the biotinylated TNKS and is thereby captured to the plates. The amount of biotinylated resp. autoparsylated TNKS is detected with a luminescence substrate for HRP. The level of the luminescence signal correlats directly with the amount of autoparsylated TNKS and therefore with activity of TNKS.
(§4) The activity ELISA is performed in 384 well Glutathione coated microtiter plates (Express capture Glutathione coated plate, Biocat, Heidelberg, Germany). The plates are pre-equilibrated with PBS. […] The plates are washed 3 times with PBS-Tween-20. The wells are blocked by incubation at room temperature for 20 minutes with 50 μl blocking buffer (PBS, 0.05% Tween-20, 0.5% BSA). Afterwards the plates are washed 3 times with PBS-Tween-20. […] The reaction is stopped by 3 times washing with PBS-Tween-20. For the detection 50 μl of 20 ng/μl Streptavidin, HRP conjugate (MoBiTec, Göttingen, Germany) in PBS/0.05% Tween-20/0.01% BSA are added and the plates are incubated for 30 minutes at room temperature. After three times washing with PBS-Tween-20 50 μl of SuperSignal ELISA Femto Maximum sensitivity substrate solution (ThermoFisherScientific (Pierce), Bonn, Germany) are added. Following a 1 minute incubation at room temperature luminescence signals are measured with an Envision multimode reader (Perkin Elmer LAS Germany GmbH) at 700 nm. The full value used is the inhibitor-free reaction. […] The inhibitory values (IC50) are determined using either the program Symyx Assay Explorer® or Condosseo® from GeneData.
Background: An ELISA detects its analyte on a solid surface through an enzyme-linked reagent.

Another test deals with T2, PARP-1 (Homo sapiens, UniProt P09874).
T2 construct: purchased Enzo Life Sciences GmbH, Lörrach, Germany
T2 sequence (P09874 whole entry): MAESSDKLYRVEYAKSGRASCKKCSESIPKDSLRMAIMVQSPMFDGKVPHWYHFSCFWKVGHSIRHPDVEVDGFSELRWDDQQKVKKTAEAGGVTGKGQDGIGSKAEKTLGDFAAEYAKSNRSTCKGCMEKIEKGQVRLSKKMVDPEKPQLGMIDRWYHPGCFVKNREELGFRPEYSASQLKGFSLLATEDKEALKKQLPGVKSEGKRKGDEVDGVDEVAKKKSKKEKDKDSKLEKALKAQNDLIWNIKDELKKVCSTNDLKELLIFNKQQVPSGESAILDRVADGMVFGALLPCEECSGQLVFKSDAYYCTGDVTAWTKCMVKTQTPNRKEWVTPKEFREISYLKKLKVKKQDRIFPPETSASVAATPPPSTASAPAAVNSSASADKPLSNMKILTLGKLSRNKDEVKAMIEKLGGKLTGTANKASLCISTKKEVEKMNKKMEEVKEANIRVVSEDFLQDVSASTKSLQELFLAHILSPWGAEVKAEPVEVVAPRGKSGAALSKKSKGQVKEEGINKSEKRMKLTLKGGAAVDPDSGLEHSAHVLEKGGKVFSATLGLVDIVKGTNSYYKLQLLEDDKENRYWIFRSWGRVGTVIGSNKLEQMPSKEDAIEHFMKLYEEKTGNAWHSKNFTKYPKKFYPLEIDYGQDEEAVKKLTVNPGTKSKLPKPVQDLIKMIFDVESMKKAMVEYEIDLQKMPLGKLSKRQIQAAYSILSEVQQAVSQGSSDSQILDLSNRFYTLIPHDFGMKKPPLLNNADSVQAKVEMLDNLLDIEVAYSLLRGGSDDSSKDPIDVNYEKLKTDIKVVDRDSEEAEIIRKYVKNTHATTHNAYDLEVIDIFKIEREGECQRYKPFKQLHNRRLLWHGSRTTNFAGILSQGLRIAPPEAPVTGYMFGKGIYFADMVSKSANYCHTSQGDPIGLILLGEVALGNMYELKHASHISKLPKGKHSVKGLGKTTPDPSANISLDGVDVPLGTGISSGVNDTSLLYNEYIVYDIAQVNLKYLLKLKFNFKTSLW
The test is described as follows: PARP-1 autoparsylation assay (HTRF). The class given is biochemical. Particulars: His-tagged Parp-1, autoparsylation HTRF. An excerpt: Description of the PARP1 Assay
Biochemical Activity Testing of PARP-1: Autoparsylation Assay
The autoparsylation assay is run in two steps: the enzymatic reaction in which His-tagged Parp-1 transfers biotinylated ADP-ribose/ADP-ribose to itself from biotinylated NAD/NAD as co-substrate and the detection reaction where a time resolved FRET between cryptate labelled anti-His antibody bound to the His tag of the enzyme and Xlent® labelled-streptavidin bound the biotin-parsylation residue is analysed. The autoparsylation activity is detectable directly via the increase in HTRF signal.
The autoparsylation assay is performed as 384-well HTRF® (Cisbio, Codolet, France) assay format in Greiner low volume nb 384-well microtiter plates. […] The ratio of the emission signals is determined. The full value used is the inhibitor-free reaction. The pharmacological zero value used is Olaparib (LClabs, Woburn, US) in a final concentration of 1 μM. The inhibitory values (IC50) are determined using either the program Symyx Assay Explorer® or Condosseo® from GeneData.
(In general: In TR-FRET formats the signal depends on donor and acceptor labels being close together.)

Another test has as its target T3, TNKS2 (Homo sapiens, UniProt Q9H2K2).
T3 construct: GST-tagged Tnks-2 (873-1166 aa, prepared in-house); made in house
The test is described as follows: TNKS2 activity ELISA (autoparsylation assay). In kind it is biochemical. Conditions: for IC50: GST-tagged Tnks-2 (873-1166 aa), read-out: IC50 [M] TNKS2 ELISA. Here is the method:
as §1, §2, §3, §4

The next test concerns Tankyrases. Particulars: read-out: EC50 [M] TNKS cellular assay; DLD1 cells, 24 hours, Axin2 increase.

T3 sequence (Q9H2K2 873-1166): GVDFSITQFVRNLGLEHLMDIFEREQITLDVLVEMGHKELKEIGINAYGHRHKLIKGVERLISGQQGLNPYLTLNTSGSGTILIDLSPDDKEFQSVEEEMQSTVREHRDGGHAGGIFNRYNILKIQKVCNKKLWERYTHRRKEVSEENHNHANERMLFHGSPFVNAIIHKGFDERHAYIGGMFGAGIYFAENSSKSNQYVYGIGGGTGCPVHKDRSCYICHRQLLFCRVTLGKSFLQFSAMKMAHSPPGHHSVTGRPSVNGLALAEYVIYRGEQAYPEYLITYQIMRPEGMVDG

As to `COc1ccc(C(=O)C2CCN(C(=O)CCCc3nn4c(C)ccc4c(=O)[nH]3)CC2)cc1` [Compound C37, 2-{4-[4-(4-Methoxybenzoyl)-piperidin-1-yl]-4-oxo-butyl}-7-methyl-3H-pyrrolo[2,1-f][1,2,4]triazin-4-one], the results for the IC50 against TNKS1, on PARP-1 and at TNKS2 were under 0.1 nM, 620 nM and under 1e-10 M, respectively. Besides, in the test on Tankyrases, the EC50 came out at 1e-09 M.

Regarding `COc1ccc(C(=O)C2CCN(C(=O)CCCc3nn4cc(C)cc4c(=O)[nH]3)CC2)cc1` [Compound C38, 2-{4-[4-(4-Methoxy-benzoyl)-piperidin-1-yl]-4-oxo-butyl}-6-methyl-3H-pyrrolo[2,1-f][1,2,4]triazin-4-one], the IC50 on TNKS1 came out at 0.28 nM; against PARP-1, 2400 nM; at TNKS2 it was 1.1e-10 M. Further, in the test with Tankyrases, the EC50 turned out to be 5.4e-09 M.

`COc1ccc(C(=O)C2CCN(C(=O)CCCc3nn4cc(F)cc4c(=O)[nH]3)CC2)cc1` [Compound C39, 6-Fluoro-2-{4-[4-(4-methoxy-benzoyl)-piperidin-1-yl]-4-oxo-butyl}-3H-pyrrolo[2,1-f][1,2,4]triazin-4-one]: the results for the IC50 at TNKS1, at PARP-1 and at TNKS2 were 0.18 nM, 2100 nM and 3.7e-10 M, respectively. In the test on Tankyrases, the EC50 was 3.1e-09 M.

Take `COc1ccc(C(=O)C2CCN(C(=O)CCCc3nc4c(ccn4C)c(=O)[nH]3)CC2)cc1` [Compound C40, 2-{4-[4-(4-Methoxy-benzoyl)-piperidin-1-yl]-4-oxo-butyl}-7-methyl-3,7-dihydro-pyrrolo[2,3-d]pyrimidin-4-one]: the IC50 on TNKS1 is 0.17 nM; against PARP-1, 1600 nM; at TNKS2 it was under 1e-10 M. Besides, the EC50 with Tankyrases is 3.2e-09 M.

Regarding `Cn1ncc2c(=O)[nH]c(CCCC(=O)N3CCC(c4cnc(N)c(C#N)c4)CC3)nc21` [Compound C44, 6-Amino-1′-[4-(1-methyl-4-oxo-4,5-dihydro-1H-pyrazolo[3,4-d]pyrimidin-6-yl)-butyryl]-1′,2′,3′,4′,5′,6′-hexahydro-[3,4′]bipyridinyl-5-carbonitrile], the IC50 against TNKS1 was found to be 1.6 nM; against PARP-1, 18000 nM; on TNKS2, 9.7e-10 M. Moreover, in the test with Tankyrases, the EC50 is 4e-07 M.

Take `Cn1ncc2c(=O)[nH]c(CCCC(=O)N3CCC(c4nnc(-c5ccccc5)o4)CC3)nc21` [Compound C46, 1-Methyl-6-{4-oxo-4[4-(5-phenyl-[1,3,4]oxadiazol-2-yl)-piperidin-1-yl]-butyl}-1,5-dihydro-pyrazolo[3,4-d]pyrimidin-4-one]: the IC50 amounted to 2.9 nM against TNKS1, 7200 nM on PARP-1 and 2.4e-09 M on TNKS2. Besides, in the test with Tankyrases, the EC50 was 6.6e-08 M.

Consider `Cn1ncc2c(=O)[nH]c(CCCC(=O)N3CCC(Oc4ccc(C#N)cc4)CC3)nc21` [Compound C47, 4-{1-[4-(1-Methyl-4-oxo-4,5-dihydro-1H-pyrazolo[3,4-d]pyrimidin-6-yl)-butyryl]-piperidin-4-yloxy}-benzonitrile], for which the IC50 was found to be 110 nM against TNKS1, 4400 nM on PARP-1 and 4.1e-08 M at TNKS2. Moreover, the EC50 with Tankyrases was determined as 4.5e-07 M.

As to `COc1ccc(C(=O)C2CCN(C(=O)CCCc3nc4c(cnn4C)c(=O)[nH]3)CC2)cc1C` [Compound C49, 6-{4-[4-(4-Methoxy-3-methyl-benzoyl)-piperidin-1-yl]-4-oxo-butyl}-1-methyl-1,5-dihydro-pyrazolo[3,4-d]pyrimidin-4-one], the IC50 against TNKS1 worked out at 0.16 nM; against PARP-1, 9900 nM; at TNKS2, 1.4e-10 M. Besides, in the test on Tankyrases, the EC50 is 3.1e-10 M.

For `Cn1ncc2c(=O)[nH]c(CCCC(=O)N3CCC(C(=O)c4ccc(C(C)(C)O)cc4)CC3)nc21` [Compound C50, 6-{4-{4-[4-(1-Hydroxy-1-methyl-ethyl)benzoyl]-1-piperidyl}-4-oxo-butyl}-1-methyl-5H-pyrazolo[3,4-d]pyrimidin-4-one], the figures for the IC50 against TNKS1, against PARP-1 and at TNKS2 were 11 nM, 23000 nM and 4e-09 M, respectively. For the same molecule, the EC50 in the test with Tankyrases came out at 3.8e-07 M.

For the molecule `Cc1csc2c(=O)[nH]c(CCCC(=O)N3CCC(c4nnc(-c5ccccc5)o4)CC3)nc12` [Compound C54, 7-Methyl-2-{4-oxo-4-[4-(5-phenyl-[1,3,4]oxadiazol-2-yl)-piperidin-1-yl]-butyl}-3H-thieno[3,2-d]pyrimidin-4-one], the IC50 against TNKS1 turned out to be 4.7 nM; at PARP-1 it was 1500 nM; at TNKS2, 1.8e-09 M. Moreover, in the test with Tankyrases, the EC50 amounted to 1.4e-08 M.

Consider `COc1ccc(C(=O)C2CCN(C(=O)CCCc3nc4c(C)csc4c(=O)[nH]3)CC2)cc1F` [Compound C55, 2-{4-[4-(3-Fluoro-4-methoxy-benzoyl)-piperidin-1-yl]-4-oxo-butyl}-7-methyl-3H-thieno[3,2-d]pyrimidin-4-one], for which the IC50 against TNKS1 was found to be 0.18 nM; at PARP-1, 400 nM; at TNKS2, 1.2e-10 M. The EC50 in the test on Tankyrases stood at 1.9e-09 M.

On to `Cc1csc2c(=O)[nH]c(CCCC(=O)N3CCC(c4cnc(N)c(C#N)c4)CC3)nc12` [Compound C56, 6-Amino-1′-[4-(7-methyl-4-oxo-3,4-dihydro-thieno[3,2-d]pyrimidin-2-yl)-butyryl]-1′,2′,3′,4′,5′,6′-hexahydro-[3,4′]bipyridinyl-5-carbonitrile], for which the IC50 is 0.95 nM against TNKS1, 360 nM at PARP-1 and 5.3e-10 M on TNKS2. The EC50 in the test with Tankyrases is 3.6e-08 M.

As for `COc1ccc(C(=O)C2CCN(C(=O)CCCc3cn4c(C)ccc4c(=O)[nH]3)CC2)cn1` [Compound C57, 3-{4-[4-(6-Methoxy-pyridine-3-carbonyl)-piperidin-1-yl]-4-oxo-butyl}-6-methyl-2H-pyrrolo[1,2-a]pyrazin-1-one], the IC50 at TNKS1 worked out at 0.19 nM; against PARP-1 it was 0.48 nM. Besides, the pIC50 on TNKS2 was 9.74. Further, the EC50 in the test on Tankyrases stood at 7.7e-10 M.

For the molecule `Cc1ccc2c(=O)[nH]c(CCCC(=O)N3CCC(C(=O)c4cnn(C)c4)CC3)cn12` [Compound C62, 6-Methyl-3-{4-[4-(1-methyl-1H-pyrazole-4-carbonyl)-piperidin-1-yl]-4-oxo-butyl}-2H-pyrrolo[1,2-a]pyrazin-1-one], the IC50 at TNKS1 was 0.16 nM; against PARP-1, 800 nM; at TNKS2, 1.2e-10 M. In the test with Tankyrases, the EC50 was found to be 3.5e-09 M.

On to `Cn1cc(C(=O)C2CCN(C(=O)CCCc3cn4cc(F)cc4c(=O)[nH]3)CC2)cn1` [Compound C78, 7-Fluoro-3-{4-[4-(1-methyl-1H-pyrazole-4-carbonyl)-piperidin-1-yl]-4-oxo-butyl}-2H-pyrrolo[1,2-a]pyrazin-1-one], for which the values for the IC50 against TNKS1, against PARP-1 and at TNKS2 were 0.24 nM, 1200 nM and 1.6e-10 M, respectively. Besides, the EC50 in the test on Tankyrases worked out at 2.9e-09 M.

Consider `COc1ccc(C(=O)C2CCN(C(=O)CCCc3cn4c(C)ncc4c(=O)[nH]3)CC2)cn1` [Compound C99, 6-{4-[4-(6-Methoxy-pyridine-3-carbonyl)-piperidin-1-yl]-4-oxo-butyl}-3-methyl-7H-imidazo[1,5-a]pyrazin-8-one], for which the IC50 is 0.37 nM on TNKS1, 6700 nM on PARP-1 and 1.1e-08 M at TNKS2. The EC50 in the test with Tankyrases turned out to be 1.1e-08 M.

In the case of `Cc1ncc2c(=O)[nH]c(CCCC(=O)N3CCC(C(=O)c4cnn(C)c4)CC3)cn12` [Compound C105, 3-Methyl-6-{4-[4-(1-methyl-1H-pyrazole-4-carbonyl)-piperidin-1-yl]-4-oxo-butyl}-7H-imidazo[1,5-a]pyrazin-8-one], the IC50 against TNKS1 was found to be 0.43 nM; on PARP-1 it was 29000 nM; on TNKS2 it was 5.7e-10 M. Also, the EC50 in the test with Tankyrases was found to be 3.9e-07 M.

These data come from patent US9809598B2 (Merck Patent GmbH, priority 2014, dated 2017).
